target: 3',5'-cyclic-AMP phosphodiesterase 4D (Homo sapiens, UniProt Q08499); test: Inhibition of human PDE4D2 catalytic domain (86 to 413aa) expressed in Escherichia coli strain BL21 after 15 mins by liquid scintillation counting in presence of [3H]-cAMP
Sequence (Q08499 whole entry, the tested form may be a part): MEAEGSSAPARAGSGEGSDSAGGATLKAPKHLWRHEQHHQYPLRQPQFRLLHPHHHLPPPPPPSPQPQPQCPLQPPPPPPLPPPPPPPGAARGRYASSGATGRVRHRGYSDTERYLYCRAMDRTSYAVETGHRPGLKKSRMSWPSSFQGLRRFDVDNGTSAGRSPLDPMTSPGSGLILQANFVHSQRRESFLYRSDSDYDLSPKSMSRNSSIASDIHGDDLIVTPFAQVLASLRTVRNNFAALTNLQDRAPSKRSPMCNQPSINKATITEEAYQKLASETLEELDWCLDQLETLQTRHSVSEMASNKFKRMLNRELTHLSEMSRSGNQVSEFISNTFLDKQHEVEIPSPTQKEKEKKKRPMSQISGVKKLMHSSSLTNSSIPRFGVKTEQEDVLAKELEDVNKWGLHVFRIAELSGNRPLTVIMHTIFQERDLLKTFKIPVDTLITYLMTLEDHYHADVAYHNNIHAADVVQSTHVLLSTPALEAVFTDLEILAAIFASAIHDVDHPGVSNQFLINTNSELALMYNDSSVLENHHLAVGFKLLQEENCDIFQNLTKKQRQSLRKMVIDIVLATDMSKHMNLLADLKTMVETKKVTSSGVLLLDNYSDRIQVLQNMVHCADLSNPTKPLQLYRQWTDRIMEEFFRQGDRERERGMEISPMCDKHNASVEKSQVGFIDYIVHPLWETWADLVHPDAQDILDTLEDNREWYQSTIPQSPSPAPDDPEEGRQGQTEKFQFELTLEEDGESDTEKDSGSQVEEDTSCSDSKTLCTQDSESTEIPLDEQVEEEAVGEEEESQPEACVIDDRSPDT

With `COc1cc2oc(=O)ccc2c(OC)c1C[C@H](OC(=O)[C@]1(O)C[C@@H](O)[C@@H](O)[C@H](OC(=O)/C=C/c2ccc(O)c(O)c2)C1)C(C)(C)O` as the molecule, how does the IC50 read?
The IC50 was 16.7 µM.

`COc1cc(O)c(/C=C/C(=O)O[C@@H](Cc2c(OC)cc3oc(=O)ccc3c2OC)C(C)(C)O)c(OC)c1CC=C(C)C` was tested. Which IC50 did it give?
Its IC50 is 7.81 µM.

`COc1cc(OC)c2ccc(=O)oc2c1/C=C/[C@H]1C[C@@H](C=C(C)C)c2c(c3ccccc3n(C)c2=O)O1` was tested. Which IC50 did it give?
Its IC50 is 0.14 µM.

`COc1cc2c(c3oc(=O)ccc13)CCC(C)(C)O2` was tested. Which IC50 did it give?
The IC50 was 2.2 µM.

How did the IC50 turn out when `COc1cc2ccc(=O)oc2c2c1OC(C)(C)CC2` was run?
Its IC50 is 1.53 µM.

Which IC50 does the source give for `CC1(C)C=Cc2c(c(O)cc3ccc(=O)oc23)O1` here?
The IC50 was 2.38 µM.

Which IC50 does the source give for `COc1cc2oc(=O)ccc2c(OC)c1CC=C(C)C` here?
Its IC50 is 9.98 µM.

`COc1cc2oc(=O)ccc2c(OC)c1CCC(C)C` was tested. Which IC50 did it give?
Its IC50 is 11.5 µM.

For `COc1cc(OC)c2ccc(=O)oc2c1CC=C(C)C`, which IC50 is on record?
The IC50 was 6.82 µM.

`COc1cc(OC)c2ccc(=O)oc2c1CCC(C)C` was tested. Which IC50 did it give?
The IC50 was 10.2 µM.

For `COC1=CC(=O)c2cc(C)cc(-c3c(OC)cc(OC)c4ccc(=O)oc34)c2C1=O`, which IC50 is on record?
Its IC50 is 5.51 µM.

How did the IC50 turn out when `COc1cc2c(c3oc(=O)ccc13)C=CC(C)(C)O2` was run?
The IC50 was 1.87 µM.
